Laboratory results reported in patent US20250381110A1, “SKIN CARE COMPOSITION AND METHOD OF USING THE SAME” (THE PROCTER & GAMBLE COMPANY, priority 2024, published 2025).

System: human dermal fibroblasts (HDFs)
Test: Cell motility assay
Format: cell-based
Details: HDFs from aged donors; 30 μM, 7 h
Experimental: HDFs were seeded in glass bottomed multiwell plates (Greiner, 662892), 24 h prior to imaging. Images were captured using a Zeiss CellDiscoverer 7 with a 5x/0.35NA lens with a 2× optovar using oblique mode brightfield with a Hamamatsu Fusion camera every 300 seconds for 5 h (1 ms exposure time), capturing 2 random fields per well. Cells were maintained at 37° C., 5% CO2 throughout experiments. 6 cells were analysed per field using the Manual Tracking plugin in FIJI/ImageJ, and shown as mean movement per cell recorded.

## CC(=O)Oc1ccc(N2C(=O)C3C(Cc4ccccc4)NC4(C(=O)Nc5c4ccc(Cl)c5C)C3C2=O)cc1 (stereo not shown) [STOCKIN-57543]
  cell motility: improving cell motility
